In patent US8299048B2, “Hexahydrocyclopentyl[f]indazole sulfonamides and derivatives thereof as selective glucocorticoid receptor modulators” (Merck Sharp & Dohme Corp., priority 2008, dated 2012):

Legend:
human GR [1] = target: T1, human GR (Homo sapiens, UniProt P04150); assay: Trans-Activation Modulation of Glucocorticoid Receptor (GRAMMER), MMTV-LUC reporter, agonist mode; format: cell-based; parameters: endogenous in cells; conditions: for Emax: A549, A549 cells, maximum activity, read-out: Transactivation A549 Cells GRAMMER Emax; for EC50: A549 cells, inflection point, read-out: Transactivation A549 Cells GRAMMER IP
T1 sequence (P04150 1-777): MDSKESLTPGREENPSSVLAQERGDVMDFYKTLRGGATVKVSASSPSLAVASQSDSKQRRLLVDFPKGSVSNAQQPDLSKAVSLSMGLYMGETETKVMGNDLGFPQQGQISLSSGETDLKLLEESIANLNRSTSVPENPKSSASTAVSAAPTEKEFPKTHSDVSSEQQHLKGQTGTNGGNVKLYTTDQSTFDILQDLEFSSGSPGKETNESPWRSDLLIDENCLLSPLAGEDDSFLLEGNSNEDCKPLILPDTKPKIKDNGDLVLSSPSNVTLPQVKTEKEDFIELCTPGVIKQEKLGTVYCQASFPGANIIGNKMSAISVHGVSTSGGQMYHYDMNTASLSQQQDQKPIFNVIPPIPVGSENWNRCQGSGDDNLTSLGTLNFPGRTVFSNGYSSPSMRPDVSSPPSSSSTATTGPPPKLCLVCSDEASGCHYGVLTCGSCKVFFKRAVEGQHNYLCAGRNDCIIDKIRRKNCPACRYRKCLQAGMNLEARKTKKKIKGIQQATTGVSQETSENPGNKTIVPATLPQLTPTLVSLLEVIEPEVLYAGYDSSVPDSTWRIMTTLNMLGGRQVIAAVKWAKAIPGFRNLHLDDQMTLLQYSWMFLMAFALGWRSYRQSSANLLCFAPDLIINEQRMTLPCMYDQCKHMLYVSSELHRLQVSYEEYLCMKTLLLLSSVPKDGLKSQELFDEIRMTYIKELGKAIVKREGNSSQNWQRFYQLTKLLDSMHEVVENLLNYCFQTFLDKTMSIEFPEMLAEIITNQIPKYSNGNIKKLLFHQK
How it was run: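 Readout is luciferase from a modified MMTV LTR promoter after 24 h compound exposure alongside 10 nM dexamethasone (100% activity reference), DMSO ≤1%.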

human GR [2] = target: T1, human GR; assay: Transrepression Assay (GITAR), TNFα-β-lactamase reporter in U937 cells; format: cell-based; parameters: U937 cells contain an endogenous glucocorticoid receptor (GR); endogenous in cells; host or cells: U937 cells stably transfected with the TNF-alpha promoter/beta-lactamase reporter; conditions: for GITAR > GRAMM % SEP: GITAR Emax minus GRAMMER Emax; for EC50: U937 cells, inflection point, read-out: Transrepression U937 Cells GITAR IP
How it was run: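 Stable TNF-α-promoter/β-lactamase U937 line, endogenous GR; 50,000 cells/well. Cmpd 30–45 min 37 °C → PMA 5 ng/ml + LPS 100 ng/ml final, 37 °C ~18 hr → CCF2-AM 70–90 min RT. 100 nM dex = 100%.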

[3] = U-937, U937 cells, maximum activity, read-out: Transrepression U937 Cells GITAR Emax
[4] = U-937, activity repressed by 100 nM dexamethasone alone set as 100%, read-out: maximal activity in the transrepression (GITAR) assay

Emax (human GR [1]) [%]	EC50 (human GR [1]) [nM]	GITAR > GRAMM % SEP (human GR [2]) [%]	EC50 (human GR [2]) [nM]	Emax (human GR [2]; [3]) [%]	Emax (human GR [2]; [4]) [%]	Compound
65.1	231	20.0	212	85.1	> 5	CCCS(=O)(=O)N(CCc1ccccc1F)C[C@H]1CCC2=Cc3c(cnn3-c3ccc(F)cc3)C[C@@]21C [Example 87, N-[2-(2-fluorophenyl)ethyl]-N-{[(4αR,5S)-1-(4-fluorophenyl)-4α-methyl-1,4,4α,5,6,7-hexahydrocyclopenta[f]indazol-5-yl]methyl}propane-1-sulfonamide]
68.2	68.6	12.4	262	80.6	> 5	C[C@]12Cc3cnn(-c4ccc(F)cc4)c3C=C1CC[C@@H]2CN(CCc1ccccc1F)S(=O)(=O)c1ccccc1F [Example 86, 2-fluoro-N-[2-(2-fluorophenyl)ethyl]-N-{[(4αR,5S)-1-(4-fluorophenyl)-4α-methyl-1,4,4α,5,6,7-hexahydrocyclopenta[f]indazol-5-yl]methyl}benzenesulfonamide]
33.5	354	34.0	651	67.6	> 5	COc1ccccc1CCN(C[C@H]1CCC2=Cc3c(cnn3-c3ccc(F)cc3)C[C@@]21C)S(=O)(=O)c1ccccc1F [Example 90, 2-fluoro-N-{[(4αR,5S)-1-(4-fluorophenyl)-4α-methyl-1,4,4α,5,6,7-hexahydrocyclopenta[f]indazol-5-yl]methyl}-N-[2-(2-methoxyphenyl)ethyl]benzenesulfonamide]
50.9	296	20.8	231	71.8	> 5	CC(C1CCC2=Cc3c(cnn3-c3ccc(F)cc3)C[C@@]21C)N(CCc1ccccc1F)S(=O)(=O)CC(F)(F)F (stereo partly drawn) [Example 93, 2,2,2-trifluoro-N-[2-(2-fluorophenyl)ethyl]-N-{1-[(4αR)-1-(4-fluorophenyl)-4α-methyl-1,4,4α,5,6,7-hexahydrocyclopenta[f]indazol-5-yl]ethyl}ethanesulfonamide]
25.8	564	15.1	1010	40.8	> 5	C[C@]12Cc3cnn(-c4ccc(F)cc4)c3C=C1CC[C@@H]2CN(CCO)S(=O)(=O)c1ccccc1C(F)(F)F [Example 70, N-{[(4αR,5S)-1-(4-fluorophenyl)-4α-methyl-1,4,4α,5,6,7-hexahydrocyclopenta[f]indazol-5-yl]methyl}-N-(2-hydroxyethyl)-2-(trifluoromethyl)benzenesulfonamide]
2.1	1410	9.9	404	12	> 5	C[C@]12Cc3cnn(-c4ccc(F)cc4)c3C=C1CC[C@@H]2CN(CCO)S(=O)(=O)Cc1cccc(C(F)(F)F)c1 [Example 63, N-{[(4αR,5S)-1-(4-fluorophenyl)-4α-methyl-1,4,4α,5,6,7-hexahydrocyclopenta[f]indazol-5-yl]methyl}-N-(2-hydroxyethyl)-1-[3-(trifluoromethyl)phenyl]methanesulfonamide]
1.6	73.7	37.1	4230	38.8	> 5	CC(=O)Nc1ccc(S(=O)(=O)N(CCO)C[C@H]2CCC3=Cc4c(cnn4-c4ccc(F)cc4)C[C@@]32C)cc1 [Example 85, N-(4-{[{[(4αR,5S)-1-(4-fluorophenyl)-4α-methyl-1,4,4α,5,6,7-hexahydrocyclopenta[f]indazol-5-yl]methyl}(2-hydroxyethyl)amino]sulfonyl}phenyl)acetamide]
81.4	119	14.3	138	95.6	> 5	C[C@]12Cc3cnn(-c4ccc(F)cc4)c3C=C1CC[C@@H]2CN(CCc1ccccc1F)S(=O)(=O)CC(F)(F)F [Example 89, 2,2,2-trifluoro-N-[2-(2-fluorophenyl)ethyl]-N-{[(4αR,5S)-1-(4-fluorophenyl)-4α-methyl-1,4,4α,5,6,7-hexahydrocyclopenta[f]indazol-5-yl]methyl}ethanesulfonamide]
10	951	22.9	757	32.9	> 5	C[C@]12Cc3cnn(-c4ccc(F)cc4)c3C=C1CC[C@@H]2CN(CCO)S(=O)(=O)c1cccc(C#N)c1 [Example 68, 3-cyano-N-{[(4αR,5S)-1-(4-fluorophenyl)-4α-methyl-1,4,4α,5,6,7-hexahydrocyclopenta[f]indazol-5-yl]methyl}-N-(2-hydroxyethyl)benezenesulfonamide]
39.3	368		407	65.1	> 5	C=CCN(C[C@H]1CCC2=Cc3c(cnn3-c3ccc(F)cc3)C[C@@]21C)S(=O)(=O)c1ccccc1F [Example 3, N-allyl-2-fluoro-N-{[(4αR,5S)-1-(4-fluorophenyl)-4α-methyl-1,4,4α,5,6,7-hexahydrocyclopenta[f]indazol-5-yl]methyl}benzenesulfonamide]
50.5	218		260	73.3	> 5	C[C@]12Cc3cnn(-c4ccc(F)cc4)c3C=C1CC[C@@H]2CN(CC1CC1)S(=O)(=O)c1ccccc1F [Example 2, N-(cyclopropylmethyl)-2-fluoro-N-{[(4αR,5S)-1-(4-fluorophenyl)-4α-methyl-1,4,4α,5,6,7-hexahydrocyclopenta[f]indazol-5-yl]methyl}benzenesulfonamide]
50.6	652	15.9	883	66.5	> 5	C[C@]12Cc3cnn(-c4ccc(F)cc4)c3C=C1CC[C@@H]2CN(CCO)S(=O)(=O)c1ccccc1C#N [Example 78, 2-cyano-N-{[(4αR,5S)-1-(4-fluorophenyl)-4α-methyl-1,4,4α,5,6,7-hexahydrocyclopenta[f]indazol-5-yl]methyl}-N-(2-hydroxyethyl)benzenesulfonamide]
5.3	1180	19.2	929	24.5	> 5	Cc1cc(S(=O)(=O)N(CCO)C[C@H]2CCC3=Cc4c(cnn4-c4ccc(F)cc4)C[C@@]32C)c(C)o1 [Example 66, N-{[(4αR,5S)-1-(4-fluorophenyl)-4α-methyl-1,4,4α,5,6,7-hexahydrocyclopenta[f]indazol-5-yl]methyl}-N-(2-hydroxyethyl)-2,5-dimethylfuran-3-sulfonamide]
25.4	364	56.0	363	81.4	> 5	COC(=O)c1ccccc1S(=O)(=O)N(CCO)C[C@H]1CCC2=Cc3c(cnn3-c3ccc(F)cc3)C[C@@]21C [Example 73, methyl 2-{[{[(4αR,5S)-1-(4-fluorophenyl)-4α-methyl-1,4,4α,5,6,7-hexahydrocyclopenta[f]indazol-5-yl]methyl}(2-hydroxyethyl)amino]sulfonyl}benzoate]
61.1	287	29.1	220	90.2	> 5	C[C@]12Cc3cnn(-c4ccc(F)cc4)c3C=C1CC[C@@H]2CN(CCO)S(=O)(=O)c1ccc(F)cc1F [Example 82, 2,4-difluoro-N-{[(4αR,5S)-1-(4-fluorophenyl)-4α-methyl-1,4,4α,5,6,7-hexahydrocyclopenta[f]indazol-5-yl]methyl}-N-(2-hydroxyethyl)benzenesulfonamide]
